Assay results published in US11358968B2, “Substituted epoxyeicosatrienoic acid (EET) analogs for treatment of kidney disease” (THE MEDICAL COLLEGE OF WISCONSIN, INC., priority 2017, dated 2022).
“Also recorded” adds a separate entry of the source. Where two headings read alike, the source gives them in different places.

Legend:
[1] = Acute i.v. infusion in rats; plasma and kidney levels by LC-MS-MS; type: in vivo, rat; conditions: for concentration at 6 h: male, Sprague-Dawley, intravenous
Protocol: For EET analog kidney-targeted delivery, we conjugated an EET analog to folic acid because there is a high concentration of folate receptors in renal tissue. The EET analog was conjugated to folic acid via a PEG-diamine linker. Next, we compared the kidney targeted EET analog, EET-FO1, to a well-studied EET analog, EET-A. EET-A or EET-FO1 was infused i.v. (10 mg/kg/hr) for 6 hours via the rat jugular vein. Plasma and kidney tissue were collected and EET-A or EET-FO1 measured by LC-MS-MS. EET-A plasma level was 1.6 ng/mL, but EET-A was undetectable in the kidney. On the other hand, EET-FO1 was 6.5 ng/mL in plasma and 26.7 ng/mL in kidney tissue. […] Experiments were conducted to compare EET-FO1 and EET-A to decrease cisplatin-induced nephrotoxicity. […] Despite it almost 2×-greater molecular weight compared with EET-A, EET-FO1 was effective in lowering BUN and NAG at 20 mg/kg/d and at a 10-fold lower dose of 2 mg/kg/d.
Acute study: Overnight fasted (12-14 hrs) male SD rats (10 weeks old) were anesthetized with sodium pentobarbital (60 mg/kg, i.p.). After a tracheostomy, the left jugular vein was cannulated to continuously infuse vehicle or EET-A or folate conjugated EET analog at a rate of 6 ml/kg/hr for 6 hours. Plasma and kidney sample were collected at the end of the protocol, snap-frozen in liquid nitrogen and stored at −80° C. until analyzed for LC-MS. EET-A and folate conjugated EET analog solutions were prepared in 0.1% DMSO and 1% PEG-400 in saline.
Mass spectrometric analysis: Plasma and kidney levels of EET-A and folate conjugated EET-A were measured by LC-ESI-MS method. Samples were prepared from 200 μl of plasma or kidney homogenate from EET-A or folate conjugated EET-A treated rats using solid phase extraction with Varian Bond Elut® C18 column (Agilent Technologies, Santa Clara, Calif., USA). The extracted samples were stored at −80° C. before analysis. Samples were warmed to room temperature, dried in a stream of nitrogen and the residue reconstituted in 20 μL of acetonitrile, […]. Components were resolved on a 250 mm×2.0 mm Kromasil C18-column packed with 5 μm diameter particles having 100 Å pores. Gradient elution from 80% A to 10% A was used with elutant flow of 0.2 mL/min. Solvent A was water with 0.01% formic acid and solvent B was acetonitrile with 0.01% formic acid using the following profile: 20% B to 30% B in 10 min, 30% B to 60% B in 17 min, 60% B to 90% B in 28 min, hold at 100% for 7 min, then 7 min re-equilibration. MS/MS analysis was performed on an Agilent 6460 triple quadrupole mass spectrometer equipped with a Jet Stream™ interface. Precursor ion, product ion, collision energy and fragmenter voltage were optimized for each compound in negative polarity. Other parameters were as follows: drying gas flow=10 L/min at 325° C., nebulizer=20 psi, sheath gas flow=11 L/min at 325° C., capillary=3.5 kV, and nozzle=1.0 kV. Results acquired at unit-mass resolution.

[2] = earlier filings PCT/US2012/032090, US 9,422,318, US 9,127,027; cited from earlier work
WKY rats = assay: Cisplatin-induced nephrotoxicity in WKY rats (chronic study; BUN, NAG, renal histology); type: in vivo, rat; conditions: for lowering BUN / lowering NAG: cisplatin-treated WKY rats
Protocol: For EET analog kidney-targeted delivery, we conjugated an EET analog to folic acid because there is a high concentration of folate receptors in renal tissue. The EET analog was conjugated to folic acid via a PEG-diamine linker. Next, we compared the kidney targeted EET analog, EET-FO1, to a well-studied EET analog, EET-A. EET-A or EET-FO1 was infused i.v. (10 mg/kg/hr) for 6 hours via the rat jugular vein. Plasma and kidney tissue were collected and EET-A or EET-FO1 measured by LC-MS-MS.
Chronic study: In chronic study, male Wistar-Kyoto (WKY) rats weighing 180-200 g (Charles River, Mass., USA) were used. The rats were assigned into […] (n=4 in each group). […] While, rats of groups 2,3,4&5 were pre-treated with vehicle (20% DMSO in PEG-400 v/v), EET analog (EET analog in double distilled water) or novel folate conjugated EET analog F01 at 20 mg/kg and 2 mg/kg doses (prepared in a mixture of 20% DMSO in PEG400), respectively in osmotic mini pump (2 ML, Alzet, Cupertino, C A) for seven days. […] One day before euthanasia, the urine of each rat was collected over a 24-h period. […] A schematic of the protocol is depicted in FIG. 1.
Biochemical analysis:The levels of blood urea nitrogen (BUN) (BioAssay Systems, Hayward, Calif., USA) and the activity of urinary N-acetyl-β-(D)-glucosaminidase (NAG) in the urine was measured by a kit from Diazyme (Diazyme Laboratories, Poway, Calif., USA).

[3] = rat, i.v. infusion 10 mg/kg/hr for 6 hours via jugular vein, LC-MS-MS
[4] = five days following cisplatin 7 mg/kg ip, compared with EET-A 10 mg/kg ip

| Structure (SMILES) | level in kidney tissue [1, 3] | plasma level [1, 3] [ng/mL] | oral activity and pharmacokinetic properties [2] | rate of reaching the plasma and the kidney, versus non-folate conjugated form ([1]; acute i.v. study) | plasma level of F01 compared to EET-A ([1]; after 6-hour continuous i.v. administration of equal doses (FIG. 2)) [fold] | kidney targeting ([1]; conclusion from plasma and kidney levels after 6 h i.v. infusion) | concentration at 6 h ([1]; kidney, rat, i.v. infusion 10 mg/kg/hr for 6 hours via jugular vein, LC-MS-MS, read-out: level in kidney tissue) [ng/mL] | concentration at 6 h ([1]; plasma, rat, i.v. infusion 10 mg/kg/hr for 6 hours via jugular vein, LC-MS-MS, read-out: plasma level) [ng/mL] | lowering BUN (WKY rats; 2 mg/kg/d) | lowering NAG (WKY rats; 2 mg/kg/d) | lowering BUN (WKY rats; 20 mg/kg/d) | lowering NAG (WKY rats; 20 mg/kg/d) | decreasing BUN (WKY rats; [4]) | decreasing NAG (WKY rats; [4]) | decreasing renal histological injury (WKY rats; [4]) | kidney protective action against cisplatin nephrotoxicity compared to EET-A (from BUN and urinary NAG) (WKY rats; pre-treatment, then 5 days treatment after cisplatin (FIG. 3), listed as F01) |
| --- | --- | --- | --- | --- | --- | --- | --- | --- | --- | --- | --- | --- | --- | --- | --- | --- |
| CCCCCNC(=O)NCCCC/C=C\CCCCCCC(=O)N[C@@H](CC(=O)O)C(=O)O [EET-A, reference compound] | undetectable; also recorded: almost un-detectable | 1.6 | orally active with good pharmacokinetic properties |  |  |  |  |  |  |  |  |  |  |  |  |  |
| CCCCCCC(=O)N(CCCCCOc1cccc2sc(NC(=O)C(C)(C)C)nc12)C(C)C [EET-B] |  |  | orally active with good pharmacokinetic properties |  |  |  |  |  |  |  |  |  |  |  |  |  |
| CCCCCNC(=O)NCCCC/C=C\CCCCCCC(=O)NCCOCCOCCNC(=O)CC[C@H](NC(=O)c1ccc(NCc2cnc3nc(N)[nH]c(=O)c3n2)cc1)C(=O)O [EET-FO1] |  |  |  | faster rate | 5 | targets the kidney | 26.7 | 6.5 | effective | effective | effective | effective | as effective as EET-A | as effective as EET-A | as effective as EET-A | better kidney protective action; also recorded: superior kidney protective action |
